Experimental data from US10336746B1, “RAD51 inhibitors” (Cyteir Therapeutics, Inc., priority 2017, dated 2019).
pEC50: −log10 of the molar value.

Columns and labels:
[1] = system: WI-38 cells (AID negative); test: Primary screening cell killing assay repeated in WI-38 cells (AID negative); type: cell-based; details: Homo sapiens, 168 h, cell death on Day 7, Cell-Titer Glo
Procedure: (§1) Primary screening was a phenotypic screen that utilized the synthetic lethal interaction between AID and RAD51 to identify compounds that were both potent and on target. AID expressing cells are dependent upon RAD51 for survival; inhibiting RAD51 in AID positive cells results in a cytotoxic effect.
Percent cell death and EC50 values were calculated by comparing the cell viability of the compound treated wells to the non-treated wells. Normalized RLU values were obtained by subtracting the media well values from each of the wells in the same column, and then dividing that value by the DMSO treated cells values. The percent kill was then calculated by subtracting the normalized RLU value from 1 and multiplying by 100. The average normalized percent kill value and standard error of the mean was then calculated. The kill values were then inputted into Prism with the corresponding standard errors. In Prism a non-linear regression line was plotted with the data points using a semi-log scale, and the EC50 value was calculated.

[2] = system: Daudi cell line (AID positive); test: Primary screening cell killing assay, Daudi cell line (AID positive); type: cell-based; details: Homo sapiens, 168 h, cell death on Day 7, Cell-Titer Glo
Procedure: as §1
The first step was to set up a cell killing assay in the Daudi cell line (AID positive). A 96 well u-bottom plate was prepared by writing the experiment number, plate number, date and initials in the top right corner of the plate lid. With a sterile 300 ml reservoir, and 25 ml serological pipette, evaporation buffer media was pipetted into reservoir in 25 ml increments. Using the liquid handler, 150 ul of evaporation buffer media was pipetted from reservoir into rows A and H, and Columns 1 and 12 of the 96 well u-bottom plate. Cell cultures were counted to obtain the density of cells per ml, and the culture viability. The cell density information was used to obtain 1,000,000 cells from culture using a 5 mL serological pipette into an epi tube. The cell density information from the culture was used to calculate the number of cells and volume of media needed for the assay to seed 1250 cells in 130 ul of media per available culture well in the 96 well u-bottom plate. Rows B through F were used for cells (50 wells in total), with row G left for an empty media control. The calculation was overestimated by 10 mL to account for the dead volume in the 300 ml reservoir. Once the media volume was calculated, the appropriate volume of media was pipetted in 25 mL increments into the 250 mL bottle using a 25 mL serological pipette. The 250 ml bottle was capped tightly, and placed into a 37° C. water bath for 2 minutes. While the culture media was warming, 10 mL of fresh media was pipetted from the 500 mL culture media bottle into a sterile 25 mL reservoir. Using the Eppendorf multichannel pipette, 130 ul of media was pipetted from the 25 mL reservoir into row G of the 96 well u-bottom plate. Once the 250 mL bottle of media was warmed, the volume of culture needed was pipetted into the bottle, and mixed gently with a 25 mL serological pipette as to not create bubbles, and then the contents of the bottle were pipetted into a new 300 mL reservoir. Using the liquid handler, 130 ul of culture was pipetted from the 300 mL reservoir into rows B through F of the 96 well u-bottom plate. Once the culture was added, the plate was placed into a 37° C. incubator until the compound master plate was prepared for use.
Two 96 well u-bottom plates were prepared by writing the master plate name in the upper right corner of the plate lid. Labeling one DMSO master and the other Media Master. The compounds of interest were obtained from the laboratory freezer, and placed into a 25 well storage box with a lid, and set the box aside. The compounds were vortexed after thawing but before use. Using an automatic multichannel pipette, 20 ul of 100% DMSO was pipetted into wells B3-B11 through G3-G11 of the DMSO master plate. For each compound on the master plate, 50 ul of the compound were pipetted in the appropriate well of row 2 (reference plate map to determine appropriate well). A serial dilution was prepared beginning by aspirating 20 ul from row 2 and mixing with row 3, repeating until row 11 was reached. Using the liquid handler, 194 ul of Daudi media was dispensed into wells B2-B11 through G2-G11 of the Media master plate. Using the liquid handler, 6 ul from the DMSO master plate was aspirated and dispensed into the media master plate, mixing 100 ul twice.
Compounds from master plate were then added to the culture plate. The culture plates were removed from the incubator, and set inside the biosafety cabinet. Using a liquid handler, 20 ul from wells B2 to B11 through G2 to G11 of master plate were aspirated, and dispensed into wells B2 to B11 through G2 to G11 of culture plate. This set was continued with each culture plate. […]

CC(C)OC(=O)NC12CCC(c3ncc(-c4ccc(NC(=O)NCc5ccccc5)cc4S(=O)(=O)NC(C)(C)C)s3)(CC1)CC2 [Ex. 18, isopropyl (4-(5-(4-(3-benzylureido)-2-(N-(tert-butyl)sulfamoyl)phenyl)thiazol-2-yl)bicyclo[2.2.2]octan-1-yl)carbamate]
pEC50 [1]: < 6.00
pEC50 [2]: ≥ 7.00

CC(C)OC(=O)NC12CCC(c3ncc(-c4ccc(NC(=O)NCc5ccccn5)cc4S(=O)(=O)NC(C)(C)C)s3)(CC1)CC2 [Ex. 19, isopropyl (4-(5-(2-(N-(tert-butyl)sulfamoyl)-4-(3-(pyridin-2-ylmethyl)ureido)phenyl)thiazol-2-yl)bicyclo[2.2.2]octan-1-yl)carbamate]
pEC50 [1]: < 6.00
pEC50 [2]: ≥ 7.00

CC(C)OC(=O)N[C@H]1CC[C@H](c2ncc(-c3ccc(NC(=O)N[C@H](C)c4ccccc4)cc3S(=O)(=O)NC(C)(C)C)s2)CC1 [Ex. 24]
pEC50 [1]: < 6.00
pEC50 [2]: ≥ 7.00

CC(C)OC(=O)N[C@H]1CC[C@H](c2ncc(-c3ccc(NC(=O)N[C@@H](C)c4ccccc4)cc3S(=O)(=O)NC(C)(C)C)s2)CC1 [Ex. 26, isopropyl ((1S,4r)-4-(5-(2-(N-(tert-butyl)sulfamoyl)-4-(3-((S)-1-phenylethyl)ureido)phenyl)thiazol-2-yl)cyclohexyl)carbamate]
pEC50 [1]: < 6.00
pEC50 [2]: ≥ 7.00

CC(C)OC(=O)N[C@H]1CC[C@H](c2ncc(-c3ccc(NC(=O)N[C@@H](C)c4ccccn4)cc3S(=O)(=O)NC(C)(C)C)s2)CC1 [Ex. 32, isopropyl ((1S,4r)-4-(5-(2-(N-(tert-butyl)sulfamoyl)-4-(3-((S)-1-(pyridin-2-yl)ethyl)ureido)phenyl)thiazol-2-yl)cyclohexyl)carbamate]
pEC50 [1]: < 6.00
pEC50 [2]: ≥ 7.00

CC(C)OC(=O)NC1CCC(c2ncc(-c3ccc(NC(=O)OCc4ccccc4)cc3S(=O)(=O)NC(C)(C)C)s2)CC1 (stereo not shown) [Ex. 39, benzyl (3-(N-(tert-butyl)sulfamoyl)-4-(2-((1r,4r)-4-((isopropoxycarbonyl)amino)cyclohexyl)thiazol-5-yl)phenyl)carbamate]
pEC50 [1]: < 6.00
pEC50 [2]: ≥ 7.00

CC(C)OC(=O)NC1CCC(c2ncc(-c3ccc(NC(=O)OCc4ccccc4F)cc3S(=O)(=O)NC(C)(C)C)s2)CC1 (stereo not shown) [Ex. 40, 2-fluorobenzyl (3-(N-(tert-butyl)sulfamoyl)-4-(2-((1r,4r)-4-((isopropoxycarbonyl)amino)cyclohexyl)thiazol-5-yl)phenyl)carbamate]
pEC50 [1]: < 6.00
pEC50 [2]: ≥ 7.00

CC(C)OC(=O)NC1CCC(c2ncc(-c3ccc(NC(=O)O[C@@H](C)c4ccccc4)cc3S(=O)(=O)NC(C)(C)C)s2)CC1 (stereo partly drawn) [Ex. 41, (S)-1-phenylethyl (3-(N-(tert-butyl)sulfamoyl)-4-(2-((1r,4S)-4-((isopropoxycarbonyl)amino)cyclohexyl)thiazol-5-yl)phenyl)carbamate]
pEC50 [1]: < 6.00
pEC50 [2]: ≥ 7.00

CC(C)OC(=O)NC1CCC(c2ncc(-c3ccc(NC(=O)OCc4ccccn4)cc3S(=O)(=O)NC(C)(C)C)s2)CC1 (stereo not shown) [Ex. 42, pyridin-2-ylmethyl (3-(N-(tert-butyl)sulfamoyl)-4-(2-((1r,4r)-4-((isopropoxycarbonyl)amino)cyclohexyl)thiazol-5-yl)phenyl)carbamate]
pEC50 [1]: < 6.00
pEC50 [2]: ≥ 7.00

CC(C)OC(=O)NC1CCC(c2ncc(-c3ccc(NC(=O)O[C@H](C)c4ccccc4)cc3S(=O)(=O)NC(C)(C)C)s2)CC1 (stereo partly drawn) [Ex. 43, (R)-1-phenylethyl (3-(N-(tert-butyl)sulfamoyl)-4-(2-((1r,4R)-4-((isopropoxycarbonyl)amino)cyclohexyl)thiazol-5-yl)phenyl)carbamate]
pEC50 [1]: < 6.00
pEC50 [2]: 6.00 to 7.00

CC(C)OC(=O)Nc1ccc(-c2cnc(N3CC(NC(=O)OC(C)C)C3)s2)c(S(=O)(=O)NC(C)(C)C)c1 [Ex. 46, isopropyl N-[3-(tert-butylsulfamoyl)-4-[2-[3-(isopropoxycarbonylamino)azetidin-1-yl]thiazol-5-yl]phenyl]carbamate]
pEC50 [1]: < 6.00
pEC50 [2]: < 6.00

CC(C)(C)NS(=O)(=O)c1cc(NC(=O)OC2COC2)ccc1-c1cnc([C@H]2CC[C@H](NC(=O)OC3COC3)CC2)s1 [Ex. 49, trans-oxetan-3-yl N-[3-(tert-butylsulfamoyl)-4-[2-[4-(oxetan-3-yloxycarbonylamino)cyclohexyl]thiazol-5-yl]phenyl]carbamate]
pEC50 [1]: < 6.00
pEC50 [2]: 6.00 to 7.00

C[C@@H](NC(=O)Nc1ccc(-c2cnc(C3CCC(NC(=O)OC4COC4)CC3)s2)c(S(=O)(=O)NC(C)(C)C)c1)c1ccccc1F (stereo partly drawn) [Ex. 54, oxetan-3-yl ((1R,4r)-4-(5-(2-(N-(tert-butyl)sulfamoyl)-4-(3-((R)-1-(2-fluorophenyl)ethyl)ureido)phenyl)thiazol-2-yl)cyclohexyl)carbamate]
pEC50 [1]: < 6.00
pEC50 [2]: ≥ 7.00

CC(C)NC(=O)OC12CCC(c3ncc(-c4ccc(NC(=O)NCc5ccccc5)cc4S(=O)(=O)NC(C)(C)C)s3)(CC1)CC2 [Ex. 61, [1-[5-[4-(benzylcarbamoylamino)-2-(tert-butylsulfamoyl)phenyl]thiazol-2-yl]-4-bicyclo[2.2.2]octanyl]N-isopropylcarbamate]
pEC50 [1]: < 6.00
pEC50 [2]: < 6.00

CC(C)NC(=O)OC12CCC(c3ncc(-c4ccc(NC(=O)NCc5ccccn5)cc4S(=O)(=O)NC(C)(C)C)s3)(CC1)CC2 [Ex. 62, 4-(5-(2-(N-(tert-butyl)sulfamoyl)-4-(3-(pyridin-2-ylmethyl)ureido)phenyl)thiazol-2-yl)bicyclo[2.2.2]octan-1-yl isopropylcarbamate]
pEC50 [1]: < 6.00
pEC50 [2]: < 6.00

CC(C)OC(=O)Nc1ccc(-c2cnc(C3CC(NC(=O)OC(C)C)C3)s2)c(S(=O)(=O)NC(C)(C)C)c1 (stereo not shown) [Ex. 65, isopropyl N-[3-(tert-butylsulfamoyl)-4-[2-[3-(isopropoxycarbonylamino)cyclobutyl]thiazol-5-yl]phenyl]carbamate]
pEC50 [1]: < 6.00
pEC50 [2]: 6.00 to 7.00

CC(C)OC(=O)N[C@H]1CC[C@H](c2ncc(-c3ccc(NC(=O)OCc4ccccc4F)cc3S(=O)(=O)NC(C)(C)C)s2)CC1 [Ex. 70, trans-isopropyl N-[4-[5-[2-(tert-butylsulfamoyl)-4-[(2-fluorophenyl)methoxycarbonylamino]phenyl]thiazol-2-yl]cyclohexyl]carbamate]
pEC50 [1]: < 6.00
pEC50 [2]: ≥ 7.00

CC(C)OC(=O)N[C@H]1CC[C@H](c2ncc(-c3ccc(NC(=O)O[C@@H](C)c4ccccc4)cc3S(=O)(=O)NC(C)(C)C)s2)CC1 [Ex. 71, trans-[(1S)-1-phenylethyl] N-[3-(tert-butylsulfamoyl)-4-[2-[4-(isopropoxycarbonylamino)cyclohexyl]thiazol-5-yl]phenyl]carbamate]
pEC50 [1]: < 6.00
pEC50 [2]: ≥ 7.00

CC(C)OC(=O)N[C@H]1CC[C@H](c2ncc(-c3ccc(NC(=O)OCc4ccccn4)cc3S(=O)(=O)NC(C)(C)C)s2)CC1 [Ex. 72, trans-2-pyridylmethyl N-[3-(tert-butylsulfamoyl)-4-[2-[4-(isopropoxycarbonylamino)cyclohexyl]thiazol-5-yl]phenyl]carbamate]
pEC50 [1]: < 6.00
pEC50 [2]: ≥ 7.00

CC(C)OC(=O)N[C@H]1CC[C@H](c2ncc(-c3ccc(NC(=O)NCc4ccc(O)cc4)cc3S(=O)(=O)NC(C)(C)C)s2)CC1 [Ex. 73, trans-isopropyl N-[4-[5-[2-(tert-butylsulfamoyl)-4-[(4-hydroxyphenyl)methylcarbamoylamino]phenyl]thiazol-2-yl]cyclohexyl]carbamate]
pEC50 [1]: < 6.00
pEC50 [2]: ≥ 7.00
